Data: article PMC4999848 (Toxins, 2016)

Legend:
[1] = tested on: CES in T84 cells; assay: CES activity on pNPA, T84 cells
[2] = tested on: CES in S9 Kidney; assay: CES activity on pNPA, kidney S9 fraction
[3] = tested on: CES in A498 cells; assay: CES activity on pNPA, A498 cells
[4] = tested on: CES in Caco-2 cells; assay: CES activity on pNPA, Caco-2 cells
[5] = tested on: CES in HepG2 cells; assay: CES activity on pNPA, HepG2 cells
[6] = tested on: human cell lines (Caco-2, HepG2, T84, A498); assay: cells; assay type: in vitro ADME; details: read-out: % inhibition of deacetylation of 3/15ADON
[7] = tested on: CES in S9 Liver; assay: CES activity on pNPA, liver S9 fraction
[8] = tested on: CES in S9 Intestine; assay: CES activity on pNPA, intestine S9 fraction
[9] = target: T1, recombinant human CES1 (Homo sapiens, UniProt P23141); assay: CES activity on pNPA, recombinant CES1
T1 sequence (P23141 18-567): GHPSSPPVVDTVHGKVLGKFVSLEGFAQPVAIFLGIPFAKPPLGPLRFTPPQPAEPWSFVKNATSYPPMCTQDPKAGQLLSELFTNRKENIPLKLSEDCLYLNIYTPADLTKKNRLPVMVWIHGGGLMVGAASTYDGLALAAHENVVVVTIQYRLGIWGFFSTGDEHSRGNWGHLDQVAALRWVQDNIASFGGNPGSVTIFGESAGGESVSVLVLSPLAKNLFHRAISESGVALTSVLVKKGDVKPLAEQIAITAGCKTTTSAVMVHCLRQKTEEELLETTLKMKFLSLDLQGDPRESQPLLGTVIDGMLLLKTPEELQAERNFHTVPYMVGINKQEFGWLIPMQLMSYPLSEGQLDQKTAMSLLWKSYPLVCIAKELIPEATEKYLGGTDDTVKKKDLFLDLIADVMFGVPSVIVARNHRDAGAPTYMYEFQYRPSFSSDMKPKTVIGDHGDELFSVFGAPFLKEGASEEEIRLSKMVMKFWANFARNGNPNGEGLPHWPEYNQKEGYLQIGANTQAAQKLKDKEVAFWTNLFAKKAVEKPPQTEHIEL

[10] = target: T2, recombinant human CES2 (Homo sapiens, UniProt O00748); assay: CES activity on pNPA, recombinant CES2; details: CES2, pNPA 1 mM
T2 sequence (O00748 27-559): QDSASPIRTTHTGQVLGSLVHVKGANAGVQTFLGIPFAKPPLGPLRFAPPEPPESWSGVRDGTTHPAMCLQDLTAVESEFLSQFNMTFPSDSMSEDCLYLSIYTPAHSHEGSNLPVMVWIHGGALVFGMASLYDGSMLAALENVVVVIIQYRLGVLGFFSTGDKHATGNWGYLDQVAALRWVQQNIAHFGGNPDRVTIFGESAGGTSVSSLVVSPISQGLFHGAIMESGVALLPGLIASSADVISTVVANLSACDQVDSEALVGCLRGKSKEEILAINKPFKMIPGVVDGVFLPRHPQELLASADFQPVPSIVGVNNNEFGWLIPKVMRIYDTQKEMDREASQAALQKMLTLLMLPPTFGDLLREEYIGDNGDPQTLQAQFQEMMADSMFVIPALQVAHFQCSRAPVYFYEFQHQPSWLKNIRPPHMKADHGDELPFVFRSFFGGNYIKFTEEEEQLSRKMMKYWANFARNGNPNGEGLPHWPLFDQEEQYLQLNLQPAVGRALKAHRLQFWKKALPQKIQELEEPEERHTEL

## O=C(C(=O)c1ccccc1)c1ccccc1 [benzil]
[1]; T84, benzil 100 μM
  % of Inhibition of pNPA deacetylation: 85 ± 14%
[2]; benzil 100 μM
  % of Inhibition of pNPA deacetylation: 88 ± 11%
[3]; A498, benzil 100 μM
  % of Inhibition of pNPA deacetylation: 83 ± 16%
[4]; Caco-2, benzil 100 μM
  % of Inhibition of pNPA deacetylation: 83 ± 16%
[5]; HepG2, benzil 100 μM
  % of Inhibition of pNPA deacetylation: 87 ± 12%
[6]
  inhibition at 100 µM: 10 to 20%
[7]; benzil 100 μM
  % of Inhibition of pNPA deacetylation: 85 ± 14%
[8]; benzil 100 μM
  % of Inhibition of pNPA deacetylation: 84 ± 15%
[9]; read-out: % of Inhibition of pNPA deacetylation
  inhibition at 100 µM: 96 ± 3.3%

## CC(=O)Oc1ccc([N+](=O)[O-])cc1 [pNPA, para-nitrophenyl acetate]
[1]; T84, pNPA 1 mM, 37 °C
  Specific activity on pNPA, Without Benzil: 6.6 ± 0.7 nmol of pNPA hydrolyzed per minute and per mg of protein
[1]; T84, pNPA 1 mM, benzil 100 μM
  Specific activity on pNPA, With Benzil: 0.9 ± 0.2 nmol of pNPA hydrolyzed per minute and per mg of protein
[2]; pNPA 1 mM, 37 °C
  Specific activity on pNPA, Without Benzil: 69 ± 7.6 nmol of pNPA hydrolyzed per minute and per mg of protein
[2]; pNPA 1 mM, benzil 100 μM
  Specific activity on pNPA, With Benzil: 8.1 ± 1.4 nmol of pNPA hydrolyzed per minute and per mg of protein
[3]; A498, pNPA 1 mM, benzil 100 μM
  Specific activity on pNPA, With Benzil: 1.1 ± 0.1 nmol of pNPA hydrolyzed per minute and per mg of protein
[10]; 37 °C
  Specific activity on pNPA, Without Benzil: 5671 ± 207 nmol of pNPA hydrolyzed per minute and per mg of protein
[10]; benzil 100 μM
  Specific activity on pNPA, With Benzil: 214 ± 43 nmol of pNPA hydrolyzed per minute and per mg of protein
[4]; Caco-2, pNPA 1 mM, 37 °C
  Specific activity on pNPA, Without Benzil: 6.2 ± 1.8 nmol of pNPA hydrolyzed per minute and per mg of protein
[4]; Caco-2, pNPA 1 mM, benzil 100 μM
  Specific activity on pNPA, With Benzil: 1.1 ± 0.1 nmol of pNPA hydrolyzed per minute and per mg of protein
[5]; HepG2, pNPA 1 mM, 37 °C
  Specific activity on pNPA, Without Benzil: 15.7 ± 1.1 nmol of pNPA hydrolyzed per minute and per mg of protein
[5]; HepG2, pNPA 1 mM, benzil 100 μM
  Specific activity on pNPA, With Benzil: 2.1 ± 0.1 nmol of pNPA hydrolyzed per minute and per mg of protein
[7]; pNPA 1 mM, 37 °C
  Specific activity on pNPA, Without Benzil: 142 ± 4.6 nmol of pNPA hydrolyzed per minute and per mg of protein
[7]; pNPA 1 mM, benzil 100 μM
  Specific activity on pNPA, With Benzil: 21 ± 2.2 nmol of pNPA hydrolyzed per minute and per mg of protein
[8]; pNPA 1 mM, 37 °C
  Specific activity on pNPA, Without Benzil: 55 ± 9.9 nmol of pNPA hydrolyzed per minute and per mg of protein
[8]; pNPA 1 mM, benzil 100 μM
  Specific activity on pNPA, With Benzil: 8.3 ± 2.7 nmol of pNPA hydrolyzed per minute and per mg of protein
[9]; CES1, pNPA 1 mM, 37 °C
  Specific activity on pNPA, Without Benzil: 4965 ± 197 nmol of pNPA hydrolyzed per minute and per mg of protein
[9]; CES1, pNPA 1 mM, benzil 100 μM
  Specific activity on pNPA, With Benzil: 167 ± 10 nmol of pNPA hydrolyzed per minute and per mg of protein
